Series [1] addresses T1, Mcl-1/Bim interaction, recombinant human Mcl-1 (171-327) (Homo sapiens, UniProt Q07820).
T1 construct: made in house
In words: Cell free Mcl-1: Bim Affinity Assay (Mcl-1 HTRF). Format: binding. Conditions: TR-FRET, 0.1 nM Mcl-1 (171-327), 0.05 nM biotin-Bim (51-76). A digest of the protocol: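 Compounds were mixed with the protein and a biotinylated Bim peptide spanning human residues 51-76. Plates were left overnight, then TR-FRET signal was measured. A four-parameter sigmoidal model applied to duplicate competition data gave IC50.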

For series [2] the following is noted: rcm bond, 16-membered ring, Hoveyda-Grubbs II, AcOH.
The subject of series [3] is OPM-2 human multiple myeloma cell line. Kind of series: Cell Viability Assay (OPM-2 10 FBS). Conditions: Homo sapiens, OPM-2, 16 h, OPM-2 cells, 16 h, CellTiter-Glo. Format: cell-based. In a few lines:
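Plated at 3000 cells/well in 10% FBS complete medium, the cells received a serial compound dilution series and incubated 16 h at 37 °C with 5% CO2. CellTiter-Glo was then added; IC50 values were fitted with a logistic 4-parameter model.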

[4] abbreviates: from C=CC[C@H](C)NS(=O)(=O)NC(=O)c1ccc2c(c1)N(C[C@@H]1CC[C@H]1[C@@H](O)C=C)C[C@@]1(CCCc3cc(Cl)ccc31)CO2.

Consider three compounds from patent US12091425B2 (AMGEN INC., priority 2016, dated 2024).

Molecules are shown by their SMILES. Read-outs that look alike come from different tables or passages of the source.

T1 sequence (Q07820 171-327): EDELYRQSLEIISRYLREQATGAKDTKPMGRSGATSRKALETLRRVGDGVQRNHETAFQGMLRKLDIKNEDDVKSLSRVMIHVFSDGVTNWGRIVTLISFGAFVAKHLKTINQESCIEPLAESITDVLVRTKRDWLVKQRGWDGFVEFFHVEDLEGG

As for `CCN1CC/C=C/[C@H](O)[C@@H]2CC[C@H]2CN2C[C@@]3(CCCc4cc(Cl)ccc43)COc3ccc(cc32)C(=O)NS1(=O)=O` (single isomer, unassigned) [Example 29], the results for the IC50 in series [1] and in series [3] were 0.00066 µM and 1.28 µM, respectively. In series [2] (from C=CCCN(CC)S(=O)(=O)NC(=O)c1ccc2c(c1)N(C[C@@H]1CC[C@H]1[C@@H](O)/C=C/CCC)C[C@@]1(CCCc3cc(Cl)ccc31)CO2, 2.9 mM), this compound gave a ring closure, yield after HPLC of 22.2%.

For `C[C@H]1C/C=C\[C@H](O)[C@@H]2CC[C@H]2CN2C[C@@]3(CCCc4cc(Cl)ccc43)COc3ccc(cc32)C(=O)NS(=O)(=O)N1` (single isomer, unassigned) [Example 62], the IC50 – broadly, the point on the concentration scale where inhibition reaches its midpoint – in series [1] was found to be 0.000266 µM; in series [3] it was 0.362 µM. In series [2] (setting [4]), this compound returned a ring closure, yield after HPLC of 2.1%.

With `C[C@H]1C/C=C/[C@H](O)[C@@H]2CC[C@H]2CN2C[C@@]3(CCCc4cc(Cl)ccc43)COc3ccc(cc32)C(=O)NS(=O)(=O)N1` [Example 61, (1S,3′R,6′R,7′S,8′E,11′S)-6-chloro-7′-hydroxy-11′-methyl-3,4-dihydro-2H,15′H-spiro[naphthalene-1,22′-[20]oxa[13]thia[1,12,14]triazatetracyclo[14.7.2.0^3,6.0^19,24]pentacosa[8,16,18,24]tetraen]-15′-one 13,13′-dioxide], the figures for the IC50 in series [1] and in series [3] were 0.000241 µM and 0.278 µM, respectively. Also, the ring closure, yield after HPLC in series [2] (setting [4]) turned out to be 50.1%.
